# From PMC6925622 (Clinical pharmacology and therapeutics, 2019)
# “And” between values parts separate entries of the source, which are not always exact repeats. Equal values may be shown once.
# Assays:
# CYP3A5 [1] = details: cited from earlier work
# CYP3A5 and CYP3A4 = details: preferentially inhibits CYP3A4; cited from earlier work
# [2] = cited from earlier work
# [3] = Clinical study control phase: midazolam pharmacokinetics by CYP3A5 genotype; assay type: in vivo, human; details: for Clearance Oral GM (90% CI): Observed, single dose of midazolam, blood clearance; for clearance: iv, 0.05 mg/kg, CLsys (systemic clearance), IV midazolam; for clearance / bioavailability / Tmax / half-life / CLpo (oral clearance) / Cmax /Dose: midazolam alone (control); for bioavailability: Fpo (oral bioavailability); for Tmax / CLpo (oral clearance) / Cmax /Dose: oral midazolam; for half-life: t1/2 (terminal half-life); for intestinal availability (FG): midazolam alone
# CYP3A4/5 = experiment: Clinical midazolam-ketoconazole interaction study; assay type: in vivo, human; details: for CLpo (oral clearance) / Cmax /Dose: oral midazolam
# CYP3A5 [4] = details: midazolam is the CYP3A probe, cited from earlier work
# CYP3A4 = details: midazolam is the CYP3A probe, cited from earlier work
# [5] = human, serum, geometric mean, CYP3A5*1/*1 (n=6)
# [6] = human, serum, geometric mean, CYP3A5*1/*3 and *1/*6 (n=9)
# [7] = human, serum, geometric mean, CYP3A5*3/*3 non-expressers (n=8)
# [8] = human, serum, geometric mean, CYP3A5 expressers (n=15)
# [9] = human, serum, CYP3A5*3/*7 (n=1)
# [10] = geometric mean, CYP3A5*1/*1 (n=6)
# [11] = geometric mean, CYP3A5*1/*3 and *1/*6 (n=9)
# [12] = geometric mean, CYP3A5 expressers (n=15)
# [13] = after 200 mg KTZ, CYP3A5*3/*7 (n=1)
# [14] = after 400 mg KTZ, CYP3A5*3/*7 (n=1)
# [15] = geometric mean, after 200 mg KTZ, CYP3A5*3/*3 non-expressers
# [16] = geometric mean, after 200 mg KTZ, CYP3A5 expressers
# [17] = geometric mean, after 400 mg KTZ, CYP3A5*1/*1
# [18] = geometric mean, after 400 mg KTZ, CYP3A5*1/*3 and *1/*6
# [19] = geometric mean, after 400 mg KTZ, CYP3A5*3/*3 non-expressers
# [20] = geometric mean, after 400 mg KTZ, CYP3A5 expressers
structure (smiles),measurement,setting,value
OC(Cn1cncn1)(Cn1cncn1)c1ccc(F)cc1F [fluconazole],changes of midazolam metabolites formation across CYP3A5 genotypes,CYP3A5 [1],did not result in differential changes
CCC(C)n1ncn(-c2ccc(N3CCN(c4ccc(OCC5COC(Cn6cncn6)(c6ccc(Cl)cc6Cl)O5)cc4)CC3)cc2)c1=O (centres unmarked) [Itraconazole],"Ki,3A5/Ki,3A4",CYP3A5 and CYP3A4,≥ 7
Cc1ncc2n1-c1ccc(Cl)cc1C(c1ccccc1F)=NC2 [midazolam],midazolam FG in SimCYP,[2]; derived using plasma clearance and hepatic plasma flow,0.57
same,inter-individual variability of midazolam clearance in other studies,[2]; other studies,3.3- to 5.2 fold
same,Clearance Oral GM (90% CI),[3]; CYP3A5 expressers,140 (114.5–171.3) L/hr
same,Clearance Oral GM (90% CI),[3]; CYP3A5 non-expressers,105 (83.5–131.5) L/hr
same,clearance,[3]; [5],540 mL/min
same,clearance,[3]; [6],550 mL/min
same,clearance,[3]; [7],402 mL/min
same,clearance,[3]; [8],547 mL/min
same,clearance,[3]; [9],318 mL/min
same,bioavailability,"[3]; human, serum, po, 4 mg, geometric mean, CYP3A5*1/*1 (n=6)",22%
same,bioavailability,"[3]; human, serum, po, 4 mg, geometric mean, CYP3A5*1/*3 and *1/*6 (n=9)",23%
same,bioavailability,"[3]; human, serum, po, 4 mg, geometric mean, CYP3A5*3/*3 non-expressers (n=8)",26%
same,bioavailability,"[3]; human, serum, po, 4 mg, geometric mean, CYP3A5 expressers (n=15)",23%
same,bioavailability,"[3]; human, serum, po, 4 mg, CYP3A5*3/*7 (n=1)",36%
same,Tmax,"[3]; human, serum, po, 4 mg, Tmax, CYP3A5*3/*7 (n=1)",1 h
same,half-life,[3]; [5],2.76 h
same,half-life,[3]; [6],2.75 h
same,half-life,[3]; [7],3.05 h
same,half-life,[3]; [8],2.75 h
same,half-life,[3]; [9],5.25 h
same,intestinal availability (FG),[3]; CYP3A5 expressers,0.35±0.09
same,intestinal availability (FG),[3]; CYP3A5 non-expressers,0.33±0.06
same,CLpo (oral clearance),[3]; [10],144 L/h
same,Cmax /Dose,[3]; [10],1.5 ng/mL
same,CLpo (oral clearance),[3]; [11],137 L/h
same,Cmax /Dose,[3]; [11],1.6 ng/mL
same,CLpo (oral clearance),[3]; [12],140 ± 66 L/h and 140 L/h
same,Cmax /Dose,[3]; [12],1.6 ± 0.6 ng/mL and 1.6 ng/mL
same,CLpo (oral clearance),[3]; CYP3A5*3/*7 (n=1),55.7 L/h
same,Cmax /Dose,[3]; CYP3A5*3/*7 (n=1),3.4 ng/mL
same,Tmax,[3]; CYP3A5 expressers (n=15),0.7 h
same,inter-individual variability for the CLsys,[3]; this study,2.3 fold
same,inter-individual variability of CLpo,[3]; this study,7.0 fold
same,CLpo (oral clearance),CYP3A4/5; [13],4.6 L/h
same,Cmax /Dose,CYP3A4/5; [13],18.1 ng/mL
same,CLpo (oral clearance),CYP3A4/5; [14],2.7 L/h
same,Cmax /Dose,CYP3A4/5; [14],21.2 ng/mL
same,Cmax /Dose,"CYP3A4/5; geometric mean, after 200 mg KTZ, CYP3A5*1/*1",9.6 ng/mL
same,Cmax /Dose,"CYP3A4/5; geometric mean, after 200 mg KTZ, CYP3A5*1/*3 and *1/*6",7.9 ng/mL
same,CLpo (oral clearance),CYP3A4/5; [15],7.0 ± 2.0 L/h and 7.0 L/h
same,Cmax /Dose,CYP3A4/5; [15],12.3 ng/mL
same,CLpo (oral clearance),CYP3A4/5; [16],13.3 ± 5.6 L/h
same,Cmax /Dose,CYP3A4/5; [16],8.5 ng/mL
same,CLpo (oral clearance),CYP3A4/5; [17],8.2 L/h
same,Cmax /Dose,CYP3A4/5; [17],9.4 ng/mL
same,CLpo (oral clearance),CYP3A4/5; [18],8.6 L/h
same,Cmax /Dose,CYP3A4/5; [18],8.9 ng/mL
same,CLpo (oral clearance),CYP3A4/5; [19],4.9 ± 1.3 L/h and 4.9 L/h
same,Cmax /Dose,CYP3A4/5; [19],15.8 ng/mL
same,CLpo (oral clearance),CYP3A4/5; [20],8.4 ± 3.5 L/h and 8.4 L/h
same,Cmax /Dose,CYP3A4/5; [20],9.1 ng/mL
CC(=O)N1CCN(c2ccc(OCC3COC(Cn4ccnc4)(c4ccc(Cl)cc4Cl)O3)cc2)CC1 (centres unmarked) [ketoconazole],Ki towards CYP3A5,CYP3A5 [4],[…]
same,difference in the AUC0–10hr of ketoconazole between the 6th and 7th day of dosing,CYP3A4/5; ketoconazole 200 mg or 400 mg,no significant difference
same,inhibition of gut CYP3A,CYP3A4/5; ketoconazole 200 and 400 mg doses,almost complete inhibition
